Results published in patent US10072026B2, “Crystalline form of 3-((1R,3s,5S)-3-((7-((5-methyl-1H-pyrazol-3-yl)amino)-1,6-naphthyridin-5-yl)amino)-8-azabicyclo[3.2.1]octan-8-yl)propanenitrile” (priority 2015, dated 2018).
Where two headings read alike, the source gives them in different places.

Assays:
[1] = biological target: JAK1 (Homo sapiens (Human), UniProt P23458); experiment: LanthaScreen JAK biochemical assay (JAK1)
[2] = system: oxazolone-induced colitis; experiment: Mouse model of oxazolone-induced colitis; format: in vivo, BALB/C mice; conditions: mouse, PO, 1, 3, and/or 10 mg/kg BID
Description: Assay 7: Mouse Model of Oxazalone-Induced Colitis
Oxazolone-induced colitis is an experimental model that has a histological resemblance to human ulcerative colitis (Heller et al. Immunology, 2002, 17, 629-638). Adult BALB/C mice from Harlan were used in the assay. On day 1, animals were lightly anesthetized with isoflurane and the hairs between the shoulder were carefully removed before oxazolone (4%, 150 μL, 4:1 acetone:olive oil formulation) or vehicle solution was slowly applied for skin sensitization. Seven days after skin sensitization, the mice were fasted overnight, anesthetized with isoflurane inhalation, and a 1 mL syringe equipped with a 3.5-F catheter, filled with oxazolone solution, was inserted carefully about 4 cm into the colon of the mouse. Following insertion, 50 μL of the oxazolone solution (1%, 1:1 ethanol:water formulation) was injected very slowly (over 30 sec using an injection pump) into the colon. The catheter was removed and the mice were held vertically (head down) for 2 min to ensure that the entire oxazolone solution remained inside the colon. Drug treatment (PO, BID or TID) or vehicle was initiated a day prior to the oxazolone intrarectal (IR) challenge. Two-day post oxazolone intrarectal challenge, the Disease Activity Index (DAI) was assessed by treatment-blinded experimenters for each mouse according to the criteria score: stool consistency score (0, normal; 2, loose; 4, diarrhea), gross bleeding score (0, absence; 2, blood tinged; 4, presence), and weight loss score (0, none; 1, 1%-5%; 2, 5%-10%; 3, 10%-20%; 4, more than 20%); DAI=average of (stool consistency score+gross bleeding score+weight loss score).
Selected compounds of the invention were tested in the assay. Efficacy in the model is evidenced by a decrease in DAI score as compared with the score from vehicle treated animals.

[3] = biological target: JAK2 (Homo sapiens (Human), UniProt O60674); experiment: LanthaScreen JAK biochemical assay (JAK2)
Sequence of JAK2 (O60674 whole entry): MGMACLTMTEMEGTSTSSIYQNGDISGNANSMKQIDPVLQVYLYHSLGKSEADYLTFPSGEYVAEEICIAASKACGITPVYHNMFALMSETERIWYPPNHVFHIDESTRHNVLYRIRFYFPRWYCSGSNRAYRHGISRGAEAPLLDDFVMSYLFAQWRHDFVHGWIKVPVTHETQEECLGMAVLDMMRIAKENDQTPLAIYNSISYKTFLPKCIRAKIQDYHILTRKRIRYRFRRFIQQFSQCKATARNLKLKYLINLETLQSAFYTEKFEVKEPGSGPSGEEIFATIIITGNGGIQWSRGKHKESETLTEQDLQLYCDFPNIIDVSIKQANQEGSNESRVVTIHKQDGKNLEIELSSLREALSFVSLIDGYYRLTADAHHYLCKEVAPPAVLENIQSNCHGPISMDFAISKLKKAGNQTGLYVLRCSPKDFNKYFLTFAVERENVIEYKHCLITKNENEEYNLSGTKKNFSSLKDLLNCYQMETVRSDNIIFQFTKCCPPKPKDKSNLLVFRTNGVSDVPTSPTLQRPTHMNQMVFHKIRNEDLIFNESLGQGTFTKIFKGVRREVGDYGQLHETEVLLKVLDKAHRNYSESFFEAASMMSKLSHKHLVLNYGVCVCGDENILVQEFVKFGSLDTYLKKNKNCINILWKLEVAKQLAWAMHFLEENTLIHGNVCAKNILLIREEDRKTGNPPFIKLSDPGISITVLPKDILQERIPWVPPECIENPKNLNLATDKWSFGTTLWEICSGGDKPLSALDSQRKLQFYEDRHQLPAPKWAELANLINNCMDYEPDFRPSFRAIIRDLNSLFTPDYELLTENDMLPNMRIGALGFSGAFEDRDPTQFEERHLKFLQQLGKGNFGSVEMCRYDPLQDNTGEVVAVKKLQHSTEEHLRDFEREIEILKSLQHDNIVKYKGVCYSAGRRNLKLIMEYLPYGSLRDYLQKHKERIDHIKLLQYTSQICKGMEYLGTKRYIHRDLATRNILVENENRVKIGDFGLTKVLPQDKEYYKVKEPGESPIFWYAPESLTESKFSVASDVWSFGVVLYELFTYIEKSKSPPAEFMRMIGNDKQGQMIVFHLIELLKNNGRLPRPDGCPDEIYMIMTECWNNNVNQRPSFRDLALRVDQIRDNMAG

[4] = system: IL-4 induced STAT6 phosphorylation in THP-1 human monocytic cells; experiment: Cellular JAK potency assay, THP-1; conditions: for IC50: Homo sapiens, THP-1, read-out: THP-1 IL4 pIC50 (converted); for THP-1 IL4 pIC50: IL-4 induced STAT6 phosphorylation, THP-1 cells
[5] = biological target: Tyk2 (Homo sapiens (Human), UniProt P29597); experiment: LanthaScreen JAK biochemical assay (Tyk2); conditions: read-out: Tyk 2 (pKi) (converted)
Sequence of Tyk2 (P29597 whole entry): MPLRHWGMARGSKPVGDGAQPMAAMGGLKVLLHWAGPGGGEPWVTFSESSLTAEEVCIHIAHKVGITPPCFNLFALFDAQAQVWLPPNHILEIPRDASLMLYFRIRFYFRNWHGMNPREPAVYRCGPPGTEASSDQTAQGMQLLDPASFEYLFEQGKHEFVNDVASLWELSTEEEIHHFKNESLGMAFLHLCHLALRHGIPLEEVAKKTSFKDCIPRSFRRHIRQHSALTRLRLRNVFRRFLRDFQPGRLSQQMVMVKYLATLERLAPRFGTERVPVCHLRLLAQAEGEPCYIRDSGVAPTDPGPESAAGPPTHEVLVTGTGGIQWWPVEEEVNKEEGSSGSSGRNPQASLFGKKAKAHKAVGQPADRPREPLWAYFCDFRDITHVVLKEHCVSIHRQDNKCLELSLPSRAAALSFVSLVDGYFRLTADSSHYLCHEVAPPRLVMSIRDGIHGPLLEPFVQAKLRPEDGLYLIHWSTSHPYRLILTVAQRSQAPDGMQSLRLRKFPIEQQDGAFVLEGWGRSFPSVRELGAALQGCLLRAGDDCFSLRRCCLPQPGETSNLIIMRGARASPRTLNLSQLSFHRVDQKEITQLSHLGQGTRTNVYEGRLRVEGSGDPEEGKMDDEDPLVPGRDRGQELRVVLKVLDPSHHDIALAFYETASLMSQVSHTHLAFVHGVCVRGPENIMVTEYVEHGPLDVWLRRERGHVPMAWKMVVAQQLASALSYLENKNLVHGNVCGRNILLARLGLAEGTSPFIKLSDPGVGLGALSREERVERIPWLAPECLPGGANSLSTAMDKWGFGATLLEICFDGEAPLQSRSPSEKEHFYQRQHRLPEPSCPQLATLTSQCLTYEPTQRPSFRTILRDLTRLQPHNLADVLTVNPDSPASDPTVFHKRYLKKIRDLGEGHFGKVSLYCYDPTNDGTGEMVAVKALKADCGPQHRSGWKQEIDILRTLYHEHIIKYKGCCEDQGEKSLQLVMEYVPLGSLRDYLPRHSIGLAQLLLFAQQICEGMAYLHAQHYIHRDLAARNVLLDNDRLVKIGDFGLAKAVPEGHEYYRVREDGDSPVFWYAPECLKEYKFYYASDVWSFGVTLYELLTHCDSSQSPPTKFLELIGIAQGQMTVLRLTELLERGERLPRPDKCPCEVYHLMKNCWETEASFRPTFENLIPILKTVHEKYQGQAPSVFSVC

[6] = system: IL-13 induced STAT6 phosphorylation in BEAS-2B human lung epithelial cells; experiment: AlphaScreen cellular JAK potency assay, BEAS-2B; conditions: for IC50: Homo sapiens, BEAS-2B, read-out: BEAS2B pIC50 (converted); for BEAS2B pIC50: IL-13 induced STAT6 phosphorylation, BEAS-2B cells
[7] = biological target: JAK3 (Homo sapiens (Human), UniProt P52333); experiment: LanthaScreen JAK biochemical assay (JAK3)
[8] = read-out: JAK 2 (pKi) (converted)
[9] = read-out: JAK 1 (pKi) (converted)

Sequence of JAK1 (P23458 whole entry): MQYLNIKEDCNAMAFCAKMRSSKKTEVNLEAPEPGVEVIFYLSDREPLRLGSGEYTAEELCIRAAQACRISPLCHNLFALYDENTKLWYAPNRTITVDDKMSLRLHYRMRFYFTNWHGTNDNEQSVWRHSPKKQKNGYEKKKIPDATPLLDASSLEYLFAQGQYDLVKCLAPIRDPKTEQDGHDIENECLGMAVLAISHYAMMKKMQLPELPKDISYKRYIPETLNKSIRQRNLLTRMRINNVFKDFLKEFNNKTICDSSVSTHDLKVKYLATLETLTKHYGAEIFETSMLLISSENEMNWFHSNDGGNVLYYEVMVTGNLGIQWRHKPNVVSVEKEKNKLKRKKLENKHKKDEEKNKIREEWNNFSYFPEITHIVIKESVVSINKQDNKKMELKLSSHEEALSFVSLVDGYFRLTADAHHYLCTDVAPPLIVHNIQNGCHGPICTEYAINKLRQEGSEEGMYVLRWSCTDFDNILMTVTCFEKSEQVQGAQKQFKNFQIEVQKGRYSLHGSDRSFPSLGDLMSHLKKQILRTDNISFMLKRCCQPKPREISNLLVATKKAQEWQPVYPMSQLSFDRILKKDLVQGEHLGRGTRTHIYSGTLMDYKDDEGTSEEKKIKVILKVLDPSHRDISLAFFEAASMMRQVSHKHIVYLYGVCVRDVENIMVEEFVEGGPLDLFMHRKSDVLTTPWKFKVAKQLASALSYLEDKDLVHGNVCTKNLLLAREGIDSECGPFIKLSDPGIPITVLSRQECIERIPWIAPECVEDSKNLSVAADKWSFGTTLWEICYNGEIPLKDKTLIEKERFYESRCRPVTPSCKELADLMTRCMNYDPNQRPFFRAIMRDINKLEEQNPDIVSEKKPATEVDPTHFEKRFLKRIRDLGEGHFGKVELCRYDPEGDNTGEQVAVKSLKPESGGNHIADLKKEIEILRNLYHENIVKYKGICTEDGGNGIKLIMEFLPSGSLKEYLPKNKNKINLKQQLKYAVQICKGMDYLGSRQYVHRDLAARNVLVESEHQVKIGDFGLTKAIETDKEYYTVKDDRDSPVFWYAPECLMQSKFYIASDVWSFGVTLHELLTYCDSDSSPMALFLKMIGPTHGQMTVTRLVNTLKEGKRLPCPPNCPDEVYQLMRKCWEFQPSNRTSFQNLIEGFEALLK

SMILES | decrease in DAI score as compared with vehicle treated animals [2] | IC50 [4] [nM] | IC50 [6] [nM] | BEAS2B pIC50 [6] | THP-1 IL4 pIC50 [4] | further results
Cc1cc(Nc2cc3ncccc3c(N[C@@H]3C[C@H]4CCC[C@@H](C3)N4C(=O)CN(C)C)n2)n[nH]1 [Example 4, 2-(Dimethylamino)-1-((1R,3s,5S)-3-((7-((5-methyl-1H-pyrazol-3-yl)amino)-1,6-naphthyridin-5-yl)amino)-9-azabicyclo[3.3.1]nonan-9-yl)ethan-1-one] | statistically significant decrease | 31.6 to 200 | – | – | – | Ki [1]: 0.1 to 1 nM; Ki [3, 8]: 0.1 to 1 nM
CCS(=O)(=O)N1[C@@H]2CC[C@H]1C[C@H](Nc1nc(Nc3cc(C)[nH]n3)cc3ncccc13)C2 [Example 7, N^5-((1R,3s,5S)-8-(ethylsulfonyl)-8-azabicyclo[3.2.1]octan-3-yl)-N^7-(5-methyl-1H-pyrazol-3-yl)-1,6-naphthyridine-5,7-diamine] | did not exhibit a statistically significant decrease | < 31.6 | < 31.6 | – | – | Ki [5]: 0.1 to 1 nM; Ki [3, 8]: 0.1 to 1 nM
Cc1cc(Nc2cc3ncccc3c(N[C@@H]3C[C@H]4CCC[C@@H](C3)N4S(=O)(=O)c3ccccc3)n2)n[nH]1 [Example 9, N^7-(5-methyl-1H-pyrazol-3-yl)-N^5-((1R,3s,5S)-9-(phenylsulfonyl)-9-azabicyclo[3.3.1]nonan-3-yl)-1,6-naphthyridine-5,7-diamine] | did not exhibit a statistically significant decrease | < 31.6 | < 31.6 | – | – | Ki [1, 9]: 0.1 to 1 nM; Ki [5]: 0.1 to 1 nM; Ki [3, 8]: 0.1 to 1 nM
Cc1cc(Nc2cc3ncccc3c(N[C@@H]3C[C@H]4CC[C@@H](C3)N4S(=O)(=O)Cc3ccccc3)n2)n[nH]1 [Example 4-13] | did not exhibit a statistically significant decrease | – | – | A (A represents a pEC50 value≥7.5 (EC50≤32 nM)) | B (B represents a pEC50 value between 6.7 and 7.5 (EC50 between 200 nM and 32 nM)) | JAK 1 (pKi) [1]: B (B represents a pKi value between 9 and 10 (Ki between 1 nM and 0.1 nM))
Cc1cc(Nc2cc3ncccc3c(N[C@@H]3C[C@H]4CC[C@@H](C3)N4S(=O)(=O)N3CC(C#N)C3)n2)n[nH]1 [Example 13, 1-(((1R,3s,5S)-3-((7-((5-methyl-1H-pyrazol-3-yl)amino)-1,6-naphthyridin-5-yl)amino)-8-azabicyclo[3.2.1]octan-8-yl)sulfonyl)azetidine-3-carbonitrile] | did not exhibit a statistically significant decrease | 31.6 to 200 | 31.6 to 200 | – | – | Ki [5]: 0.1 to 1 nM
Cc1cc(Nc2cc3ncccc3c(N[C@@H]3C[C@H]4CCC[C@@H](C3)N4S(=O)(=O)C3CC3)n2)n[nH]1 [Example 4-18] | did not exhibit a statistically significant decrease | – | – | A (A represents a pEC50 value≥7.5 (EC50≤32 nM)) | A (A represents a pEC50 value≥7.5 (EC50≤32 nM)) | JAK 1 (pKi) [1]: A (A represents a pKi value≥10 (Ki≤0.1 nM))
COCCS(=O)(=O)N1[C@@H]2CC[C@H]1C[C@H](Nc1nc(Nc3cc(C)[nH]n3)cc3ncccc13)C2 [Example 6, N^5-((1R,3s,5S)-8-((2-methoxyethyl)sulfonyl)-8-azabicyclo[3.2.1]octan-3-yl)-N^7-(5-methyl-1H-pyrazol-3-yl)-1,6-naphthyridine-5,7-diamine] | statistically significant decrease | – | – | – | – | –
Cc1cc(Nc2cc3ncccc3c(N[C@@H]3C[C@H]4CCC[C@@H](C3)N4S(=O)(=O)CC3CC3)n2)n[nH]1 [Example 4-23] | did not exhibit a statistically significant decrease | – | – | A (A represents a pEC50 value≥7.5 (EC50≤32 nM)) | A (A represents a pEC50 value≥7.5 (EC50≤32 nM)) | –
Cc1cc(Nc2cc3ncccc3c(N[C@@H]3C[C@H]4CC[C@@H](C3)N4S(=O)(=O)c3cccnc3)n2)n[nH]1 [Example 3, N^7-(5-methyl-1H-pyrazol-3-yl)-N^5-((1R,3s,5S)-8-(pyridin-3-ylsulfonyl)-8-azabicyclo[3.2.1]octan-3-yl)-1,6-naphthyridine-5,7-diamine] | statistically significant decrease | 31.6 to 200 | < 31.6 | – | – | Ki [1, 9]: 0.1 to 1 nM; Ki [3, 8]: 0.1 to 1 nM
Cc1cc(Nc2cc3ncccc3c(N[C@@H]3C[C@H]4CCC[C@@H](C3)N4CC(=O)N(C)C)n2)n[nH]1 [Example 1-38] | statistically significant decrease | – | – | – | B (B represents a pEC50 value between 6.7 and 7.5 (EC50 between 200 nM and 32 nM)) | JAK 1 (pKi) [1]: B (B represents a pKi value between 9 and 10 (Ki between 1 nM and 0.1 nM)); JAK 3 (pKi) [7]: C (C represents a pKi value between 7 and 9 (Ki between 100 nM and 1 nM)); JAK 2 (pKi) [3]: B (B represents a pKi value between 9 and 10 (Ki between 1 nM and 0.1 nM))
Cc1cc(Nc2cc3ncccc3c(N[C@@H]3C[C@H]4CCC[C@@H](C3)N4C(=O)Cc3ccccc3)n2)n[nH]1 [Example 2-24] | did not exhibit a statistically significant decrease | – | – | A (A represents a pEC50 value≥7.5 (EC50≤32 nM)) | A (A represents a pEC50 value≥7.5 (EC50≤32 nM)) | JAK 1 (pKi) [1]: B (B represents a pKi value between 9 and 10 (Ki between 1 nM and 0.1 nM)); JAK 2 (pKi) [3]: B (B represents a pKi value between 9 and 10 (Ki between 1 nM and 0.1 nM))
Cc1cc(Nc2cc3ncccc3c(N[C@@H]3C[C@H]4CC[C@@H](C3)N4S(=O)(=O)C3CC3)n2)n[nH]1 [Example 4-4] | did not exhibit a statistically significant decrease | < 31.6 | < 31.6 | – | – | Ki [1, 9]: 0.1 to 1 nM; Ki [3]: 0.1 to 1 nM
Cc1cc(Nc2cc3ncccc3c(N[C@@H]3C[C@H]4CCC[C@@H](C3)N4S(=O)(=O)N3CC(C#N)C3)n2)n[nH]1 [Example 11, 1-(((1R,3s,5S)-3-((7-((5-methyl-1H-pyrazol-3-yl)amino)-1,6-naphthyridin-5-yl)amino)-9-azabicyclo[3.3.1]nonan-9-yl)sulfonyl)azetidine-3-carbonitrile] | did not exhibit a statistically significant decrease | 31.6 to 200 | < 31.6 | – | – | –
Cc1cc(Nc2cc3nc(CO)ccc3c(N[C@@H]3C[C@H]4CC[C@@H](C3)N4CCC#N)n2)n[nH]1 [Example 5-11] | did not exhibit a statistically significant decrease | – | – | B (B represents a pEC50 value between 6.7 and 7.5 (EC50 between 200 nM and 32 nM)) | A (A represents a pEC50 value≥7.5 (EC50≤32 nM)) | JAK 2 (pKi) [3]: A (A represents a pKi value≥10 (Ki≤0.1 nM))
CCC(=O)N1[C@@H]2CC[C@H]1C[C@H](Nc1nc(Nc3cc(C)[nH]n3)cc3ncccc13)C2 [Example 2-1] | did not exhibit a statistically significant decrease | 31.6 to 200 | 31.6 to 200 | – | – | Ki [1, 9]: 0.1 to 1 nM
